Where a name gives a salt, the structure may show the parent alone.
These molecules were tested against T1, purified human Factor XIa (Homo sapiens, UniProt P03951) (assay: Factor XIa Assay (hydrolysis of fluorogenic substrate Z-Gly-Pro-Arg-AFC)). Conditions: purified human Factor XIa 40 pM; Z-Gly-Pro-Arg-AFC 100 μM; 50 mM HEPES pH 7.4; read-out: Factor XIa Inhibition (IC50 (nM)).
T1 construct: Determinations were made using purified human Factor XIa; purchased Sekisui Diagnostics
Type: biochemical
Method: The effectiveness of compounds of the present invention as inhibitors of Coagulation Factor XIa can be determined using a relevant purified serine protease, and an appropriate synthetic substrate. The rate of hydrolysis of the chromogenic or fluorogenic substrate by the relevant serine protease was measured both in the absence and presence of compounds of the present invention. Assays were conducted at room temperature or at 37° C. […] A decrease in the rate of fluorescence change in the presence of inhibitor is indicative of enzyme inhibition. Such methods are known to one skilled in the art. […]
Factor XIa determinations were made in 50 mM HEPES buffer at pH 7.4 containing 150 mM NaCl, 5 mM CaCl2, and 0.1% PEG 8000 (polyethylene glycol; JT Baker or Fisher Scientific). Determinations were made using purified human Factor XIa at a final concentration of 40 pM (Sekisui Diagnostics) and the synthetic substrate, Z-Gly-Pro-Arg-AFC, TFA salt (Sigma #C0980) at a concentration of 100 μM.
Times required to achieve equilibration between enzyme and inhibitor were determined in control experiments. Initial velocities of product formation in the absence (Vo) or presence of inhibitor (Vi) were measured. Assuming competitive inhibition, and that unity is negligible compared Km/[S], [I]/e, and [I]/e (where [S], [I], and e respectively represent the total concentrations, of substrate, inhibitor and enzyme), the equilibrium constant (Ki) for dissociation of the inhibitor from the enzyme can be obtained from the dependence of Vo/Vi on [I] shown in the following equation.

T1 sequence (P03951 388-625 limits assumed): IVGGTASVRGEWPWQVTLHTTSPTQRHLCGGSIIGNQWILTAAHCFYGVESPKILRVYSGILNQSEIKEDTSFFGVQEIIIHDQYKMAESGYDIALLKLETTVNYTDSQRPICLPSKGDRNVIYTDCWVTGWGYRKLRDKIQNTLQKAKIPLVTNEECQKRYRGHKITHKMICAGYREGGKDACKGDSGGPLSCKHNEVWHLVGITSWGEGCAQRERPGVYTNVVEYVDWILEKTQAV
T1 sequence (P03951 19-387 partner limits assumed): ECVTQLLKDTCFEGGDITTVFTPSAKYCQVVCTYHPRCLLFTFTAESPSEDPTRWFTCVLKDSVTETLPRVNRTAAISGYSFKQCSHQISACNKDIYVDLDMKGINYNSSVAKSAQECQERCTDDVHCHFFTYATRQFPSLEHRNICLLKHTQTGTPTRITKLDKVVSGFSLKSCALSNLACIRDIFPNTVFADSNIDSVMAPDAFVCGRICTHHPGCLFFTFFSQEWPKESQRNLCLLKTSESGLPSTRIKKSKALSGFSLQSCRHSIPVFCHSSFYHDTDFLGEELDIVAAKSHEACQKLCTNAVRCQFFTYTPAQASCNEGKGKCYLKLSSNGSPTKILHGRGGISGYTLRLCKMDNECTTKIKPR

Structure (SMILES)	IC50 [nM]
O=C(O)c1ccc(NC(=O)[C@@H]2[C@H](c3ccccc3)C[C@H](OC3CCNCC3)CN2C(=O)/C=C/c2cc(Cl)ccc2-n2cnnn2)cc1 (single isomer, unassigned) [Example 9]	2.5
COC(=O)Nc1ccc(-c2cnc(C3C(c4ccc(F)cc4)CC(N4CCC(N)CC4)CN3C(=O)/C=C/c3c(C(F)(F)F)ccc(Cl)c3F)[nH]2)cc1 (stereo not drawn) [Example 20, methyl (4-{2-[4-amino-1′-{(2E)-3-[3-chloro-2-fluoro-6-(trifluoromethyl)phenyl]prop-2-enoyl}-5′-(4-fluorophenyl)-1,3′-bipiperidin-6′-yl]-1H-imidazol-5-yl}phenyl)carbamate]	128
O=C(O)c1ccc(NC(=O)[C@H]2[C@@H](c3ccccc3)C[C@@H](OC3CCNCC3)CN2C(=O)/C=C/c2cc(Cl)ccc2-n2cnnn2)cc1 [Example 10, 4-((2R,3R,5R)-1-((E)-3-(5-chloro-2-(1H-tetrazol-1-yl)phenyl)acryloyl)-3-phenyl-5-(piperidin-4-yloxy)piperidine-2-carboxamido)benzoic acid]	306
NC1CCN([C@H]2C[C@@H](c3ccc(F)cc3)[C@@H](c3nc(-c4cccnc4)c[nH]3)N(C(=O)/C=C/c3cc(Cl)ccc3-n3cnnn3)C2)CC1 [Example 15, (3′S,5′S,6′S)-1′-{(2E)-3-[5-chloro-2-(1H-tetrazol-1-yl)phenyl]prop-2-enoyl}-5′-(4-fluorophenyl)-6′-(4-pyridin-3-yl-1H-imidazol-2-yl)-1,3′-bipiperidin-4-amine]	82.1
O=C(O)c1ccc(NC(=O)[C@@H]2[C@H](c3ccccc3)C[C@H](C3CCNCC3)CN2C(=O)/C=C/c2cc(Cl)ccc2-n2cnnn2)cc1 (single isomer, unassigned) [Example 23, trifluoroacetic acid salt]	640
COC(=O)Nc1ccc(-c2c[nH]c(C3C(c4ccc(F)cc4)CC(N4CCC(N)CC4)CN3C(=O)/C=C/c3cc(Cl)ccc3-n3cnnn3)n2)cc1 (single isomer, unassigned) [Example 13, Methyl (4-{2-[4-amino-1′-{(2E)-3-[5-chloro-2-(1H-tetrazol-1-yl)phenyl]prop-2-enoyl}-5′-(4-fluorophenyl)-1,3′-bipiperidin-6′-yl]-1H-imidazol-4-yl}phenyl)-carbamate]	1.7
O=C(Nc1ccc2[nH]ncc2c1)[C@H]1[C@@H](c2ccc(F)cc2)C[C@@H](N2CCNCC2)CN1C(=O)/C=C/c1cc(Cl)ccc1-n1cnnn1 [Example 30, (2R,3R,5R)-1-{(2E)-3-[5-chloro-2-(1H-tetrazol-1-yl)phenyl]prop-2-enoyl}-3-(4-fluorophenyl)-N-1H-indazol-5-yl-5-piperazin-1-ylpiperidine-2-carboxamide]	767
NC1CCN(C2CC(c3ccc(F)cc3)C(c3nc(-c4cccnc4)c[nH]3)N(C(=O)/C=C/c3cc(Cl)ccc3-n3cnnn3)C2)CC1 (stereo not drawn) [Example 14, 1′-{(2E)-3-[5-chloro-2-(1H-tetrazol-1-yl)phenyl]prop-2-enoyl}-5′-(4-fluorophenyl)-6′-(4-pyridin-3-yl-1H-imidazol-2-yl)-1,3′-bipiperidin-4-amine]	139
NC1CCN([C@@H]2C[C@H](c3ccccc3)[C@H](C(=O)Nc3ccc(C(=O)O)cc3)N(C(=O)/C=C/c3cc(Cl)ccc3-n3cnnn3)C2)CC1 [Example 7, 4-({[(3′R,5′R,6′R)-4-amino-1′-{(2E)-3-[5-chloro-2-(1H-tetrazol-1-yl)phenyl]prop-2-enoyl}-5′-phenyl-1,3′-bipiperidin-6′-yl]carbonyl}amino)benzoic acid]	0.4
CC(=O)N1CCN([C@H]2C[C@@H](c3ccc(F)cc3)[C@@H](C(=O)Nc3ccc4[nH]ncc4c3)N(C(=O)/C=C/c3cc(Cl)ccc3-n3cnnn3)C2)CC1 [Example 32, (2S,3S,5S)-5-(4-acetylpiperazin-1-yl)-1-{(2E)-3-[5-chloro-2-(1H-tetrazol-1-yl)phenyl]prop-2-enoyl}-3-(4-fluorophenyl)-N-1H-indazol-5-ylpiperidine-2-carboxamide]	72.2
N#Cc1ccc(-c2cnc(C3C(c4ccc(F)cc4)CC(N4CCC(N)CC4)CN3C(=O)/C=C/c3c(C(F)(F)F)ccc(Cl)c3F)[nH]2)cc1 (stereo not drawn) [Example 16, 4-{2-[4-amino-1′-{(2E)-3-[3-chloro-2-fluoro-6-(trifluoromethyl)phen-yl]prop-2-enoyl}-5′-(4-fluorophenyl)-1,3′-bipiperidin-6′-yl]-1H-imidazol-5-yl}benzonitrile]	35.6
N#Cc1ccc(-c2cnc(C3C(c4ccc(F)cc4)CC(N4CCC(N)CC4)CN3C(=O)/C=C/c3cc(Cl)ccc3-n3cnnn3)[nH]2)cc1 (stereo not drawn) [Example 18, 4-{2-[4-amino-1′-{(2E)-3-[5-chloro-2-(1H-tetrazol-1-yl)phenyl]prop-2-enoyl}-5′-(4-fluorophenyl)-1,3′-bipiperidin-6′-yl]-1H-imidazol-5-yl}benzonitrile]	16.5
COC(=O)Nc1ccc(-c2c[nH]c([C@@H]3[C@H](C4CC4)C[C@H](N4CCC(N)CC4)CN3C(=O)/C=C/c3cc(Cl)ccc3-n3cnnn3)n2)cc1 [Example 22, methyl (4-{2-[(3′S,5′S,6′S)-4-amino-1′-{(2E)-3-[5-chloro-2-(1H-tetrazol-1-yl)phenyl]prop-2-enoyl}-5′-cyclopropyl-1,3′-bipiperidin-6′-yl]-1H-imidazol-4-yl}phenyl)carbamate]	671
O=C(O)c1ccc(NC(=O)[C@@H]2[C@H](OC3CCNCC3)C[C@H](c3ccccc3)CN2C(=O)/C=C/c2cc(Cl)ccc2-n2cnnn2)cc1 (racemic) [Example 12, 4-(1-((E)-3-(5-chloro-2-(1H-tetrazol-1-yl)phenyl)acryloyl)-5-phenyl-3-(piperidin-4-yloxy)piperidine-2-carboxamido)benzoic acid]	155
N#Cc1ccc(-c2cnc(C3C(c4ccc(F)cc4)CC(N4CCC(N)CC4)CN3C(=O)/C=C/c3c(C(F)(F)F)ccc(Cl)c3F)[nH]2)cc1 (stereo not drawn) [Example 17, 4-{2-[4-amino-1′-{(2E)-3-[3-chloro-2-fluoro-6-(trifluoromethyl)phen-yl]prop-2-enoyl}-5′-(4-fluorophenyl)-1,3′-bipiperidin-6′-yl]-1H-imidazol-5-yl}benzonitrile]	889
CC1CC(N2CCC(N)CC2)CN(C(=O)/C=C/c2cc(Cl)ccc2-n2cnnn2)C1C(=O)Nc1ccc(C(=O)O)cc1 (stereo not drawn) [Example 5, 4-{[(4-amino-1′-{(2E)-3-[5-chloro-2-(1H-tetrazol-1-yl)phenyl]prop-2-enoyl}-5′-methyl-1,3′-bipiperidin-6′-yl)carbonyl]amino}benzoic acid]	105
O=C(Nc1ccc2[nH]ncc2c1)[C@@H]1[C@H](c2ccc(F)cc2)C[C@H](N2CCOCC2)CN1C(=O)/C=C/c1cc(Cl)ccc1-n1cnnn1 [Example 29, (2S,3S,5S)-1′-{(2E)-3-[5-Chloro-2-(1H-tetrazol-1-yl)phenyl]prop-2-enoyl}-3-(4-fluorophenyl)-N-1H-indazol-5-yl-5-morpholin-4-ylpiperidine-2-carboxamide]	81.1
COC(=O)Nc1ccc(-c2c[nH]c([C@@H]3[C@H](C4CC4)C[C@H](C4CCN(S(C)(=O)=O)CC4)CN3C(=O)/C=C/c3cc(Cl)ccc3-n3cnnn3)n2)cc1 (single isomer, unassigned) [Example 28]	652
C[C@@H]1C[C@H](C2CCNCC2)CN(C(=O)c2ccc(CN)c(C3CC3)c2)[C@@H]1C(=O)Nc1ccc(C(=O)O)cc1 [Example 25, 4-((3R,5R,6S)-1-(4-(aminomethyl)-3-cyclopropylbenzoyl)-5-methy-1-[3,4′-bipiperidine]-6-carboxamido) benzoic acid]	519
CC(C)C1CC(N2CCC(N)CC2)CN(C(=O)/C=C/c2cc(Cl)ccc2-n2cnnn2)C1C(=O)Nc1ccc(C(=O)O)cc1 (stereo not drawn) [Example 3, 4-({[4-amino-1′-{(2E)-3-[5-chloro-2-(1H-tetrazol-1-yl)phenyl]prop-2-enoyl}-5′-(1-methylethyl)-1,3′-bipiperidin-6′-yl]carbonyl}amino)benzoic acid]	27.2
C[C@@H]1C[C@H](C2CCNCC2)CN(C(=O)/C=C/c2cc(Cl)ccc2-n2cnnn2)[C@@H]1C(=O)Nc1ccc(C(=O)O)cc1 [Example 24, 4-((3R,5R,6S)-1-((E)-3-(5-chloro-2-(1H-tetrazol-1-yl)phenyl)acryloyl)-5-methyl-[3,4′-bipiperidine]-6-carboxamido)benzoic acid]	579
NC1CCN(C2CC(C3CC3)C(C(=O)Nc3ccc(C(=O)O)cc3)N(C(=O)/C=C/c3cc(Cl)ccc3-n3cnnn3)C2)CC1 (stereo not drawn) [Example 4, 4-{[(4-amino-1′-{(2E)-3-[5-chloro-2-(1H-tetrazol-1-yl)phenyl]prop-2-enoyl}-5′-cyclopropyl-1,3′-bipiperidin-6′-yl)carbonyl]amino}benzoic acid]	2.2
O=C(O)c1ccc(NC(=O)[C@@H]2[C@H](C3CCCCC3)C[C@H](OC3CCNCC3)CN2C(=O)/C=C/c2cc(Cl)ccc2-n2cnnn2)cc1 (racemic) [Example 11]	6.1
O=C(O)c1ccc(NC(=O)[C@@H]2[C@H](c3ccccc3)C[C@H](OC3CCNCC3)CN2C(=O)/C=C/c2cc(Cl)ccc2-n2cnnn2)cc1 (racemic) [Example 8, 4-(1-((E)-3-(5-Chloro-2-(1H-tetrazol-1-yl)phenyl)acryloyl)-3-phenyl-5-(piperidin-4-yloxy)piperidine-2-carboxamido)benzoic acid]	4.7
